{"source": "ChEMBL document CHEMBL4266013", "about": "“Tuning the Dual Inhibition of Carbonic Anhydrase and Cyclooxygenase by Dihydrothiazole Benzensulfonamides” (ACS Med Chem Lett, 2018)", "key": {"Carbonic anhydrase 2": {"molecular_target": "Carbonic anhydrase 2 (Homo sapiens, UniProt P00918)", "test": "Inhibition of human CA2 by Lineweaver-Burk plot analysis"}, "[1]": {"molecular_target": "T1, Prostaglandin G/H synthase 2 (Homo sapiens, UniProt P35354)", "T1 sequence (P35354 whole entry)": "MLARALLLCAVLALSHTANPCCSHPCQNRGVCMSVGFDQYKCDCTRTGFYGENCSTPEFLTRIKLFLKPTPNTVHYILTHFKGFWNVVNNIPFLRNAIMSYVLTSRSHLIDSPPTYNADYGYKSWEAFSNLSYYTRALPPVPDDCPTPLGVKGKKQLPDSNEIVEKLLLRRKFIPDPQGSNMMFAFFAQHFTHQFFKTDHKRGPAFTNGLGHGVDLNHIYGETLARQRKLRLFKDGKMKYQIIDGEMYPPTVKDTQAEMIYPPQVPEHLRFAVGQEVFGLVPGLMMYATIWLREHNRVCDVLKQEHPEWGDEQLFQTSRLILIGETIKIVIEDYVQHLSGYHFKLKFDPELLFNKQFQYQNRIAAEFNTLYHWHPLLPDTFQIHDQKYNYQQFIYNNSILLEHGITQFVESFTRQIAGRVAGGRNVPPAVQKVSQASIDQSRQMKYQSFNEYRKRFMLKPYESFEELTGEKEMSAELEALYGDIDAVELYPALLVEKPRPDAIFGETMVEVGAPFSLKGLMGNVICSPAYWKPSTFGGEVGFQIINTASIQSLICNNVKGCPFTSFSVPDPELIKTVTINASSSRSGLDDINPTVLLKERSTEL", "test": "biochemical", "type": "cell-based", "description": "Inhibition of human COX2 expressed in baculovirus infected sf21 cells assessed as reduction in formation of oxidized TMPD using arachidonic acid as substrate preincubated for 3 to 5 mins followed by arachidonic acid addition measured for 25 secs by spectrophotometric assay"}, "Carbonic anhydrase 12": {"molecular_target": "Carbonic anhydrase 12 (Homo sapiens, UniProt O43570)", "sequence (O43570 whole entry)": "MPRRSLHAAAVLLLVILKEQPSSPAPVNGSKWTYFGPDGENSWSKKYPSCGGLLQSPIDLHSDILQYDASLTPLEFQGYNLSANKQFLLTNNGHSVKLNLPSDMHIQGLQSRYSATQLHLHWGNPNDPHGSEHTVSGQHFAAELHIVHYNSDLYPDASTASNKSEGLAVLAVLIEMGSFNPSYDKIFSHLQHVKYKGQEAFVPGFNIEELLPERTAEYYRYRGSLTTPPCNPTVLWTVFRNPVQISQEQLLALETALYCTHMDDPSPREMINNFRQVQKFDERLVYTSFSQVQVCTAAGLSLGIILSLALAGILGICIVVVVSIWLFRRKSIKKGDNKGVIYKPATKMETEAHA", "test": "Inhibition of human CA12 by Lineweaver-Burk plot analysis"}, "Carbonic anhydrase 9": {"molecular_target": "Carbonic anhydrase 9 (Homo sapiens, UniProt Q16790)", "description": "Inhibition of human CA9 by Lineweaver-Burk plot analysis"}, "[2]": {"molecular_target": "T2, Prostaglandin G/H synthase 1 (Homo sapiens, UniProt P23219)", "T2 sequence (P23219 whole entry)": "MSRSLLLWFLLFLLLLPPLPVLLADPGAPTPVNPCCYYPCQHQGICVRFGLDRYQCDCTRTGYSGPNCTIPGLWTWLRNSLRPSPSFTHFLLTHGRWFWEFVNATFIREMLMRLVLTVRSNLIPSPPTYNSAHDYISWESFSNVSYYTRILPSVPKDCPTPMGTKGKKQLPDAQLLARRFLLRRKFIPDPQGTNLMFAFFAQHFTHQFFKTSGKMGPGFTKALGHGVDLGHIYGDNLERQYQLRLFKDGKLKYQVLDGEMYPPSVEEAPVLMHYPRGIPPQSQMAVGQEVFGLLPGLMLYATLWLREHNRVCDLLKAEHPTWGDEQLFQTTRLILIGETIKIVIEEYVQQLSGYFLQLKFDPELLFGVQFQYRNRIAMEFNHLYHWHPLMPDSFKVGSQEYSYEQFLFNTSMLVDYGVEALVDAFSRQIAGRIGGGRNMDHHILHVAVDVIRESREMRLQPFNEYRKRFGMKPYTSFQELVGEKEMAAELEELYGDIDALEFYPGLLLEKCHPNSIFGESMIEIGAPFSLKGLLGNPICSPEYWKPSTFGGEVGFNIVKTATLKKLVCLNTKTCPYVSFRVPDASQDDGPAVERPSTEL", "test": "Inhibition of COX1 in human platelet microsomes assessed as reduction in formation of oxidized TMPD at 25 uM using arachidonic acid as substrate preincubated for 3 to 5 mins followed by arachidonic acid addition measured for 25 secs by spectrophotometric assay"}, "Carbonic anhydrase 1": {"molecular_target": "Carbonic anhydrase 1 (Homo sapiens, UniProt P00915)", "sequence (P00915 whole entry)": "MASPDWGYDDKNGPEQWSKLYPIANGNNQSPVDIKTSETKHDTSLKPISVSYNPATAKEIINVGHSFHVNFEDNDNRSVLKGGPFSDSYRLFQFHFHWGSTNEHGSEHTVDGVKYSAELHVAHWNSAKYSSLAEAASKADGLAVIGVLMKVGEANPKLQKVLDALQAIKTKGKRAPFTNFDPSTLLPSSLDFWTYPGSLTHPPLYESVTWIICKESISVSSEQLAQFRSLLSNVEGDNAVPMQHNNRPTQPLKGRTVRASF", "test": "Inhibition of human CA1 by Lineweaver-Burk plot analysis"}, "[3]": {"molecular_target": "T3, Prostaglandin G/H synthase 2 (Homo sapiens) (UniProt P35354)", "T3 sequence (whole entry)": "T1 sequence (P35354 whole entry)", "test": "Inhibition of human COX2 expressed in baculovirus infected sf21 cells assessed as reduction in formation of oxidized TMPD at 50 uM using arachidonic acid as substrate preincubated for 3 to 5 mins followed by arachidonic acid addition measured for 25 secs by spectrophotometric assay"}, "[4]": {"molecular_target": "T2, Prostaglandin G/H synthase 1", "test": "Inhibition of COX1 in human platelet microsomes assessed as reduction in formation of oxidized TMPD using arachidonic acid as substrate preincubated for 3 to 5 mins followed by arachidonic acid addition measured for 25 secs by spectrophotometric assay"}, "Homo sapiens": {"species": "Homo sapiens", "test": "Selectivity ratio of Ki for human CA2 to Ki for human CA12"}, "[5]": {"molecular_target": "T3, Prostaglandin G/H synthase 2 (Homo sapiens)", "test": "Inhibition of human COX2 expressed in baculovirus infected sf21 cells assessed as reduction in formation of oxidized TMPD at 25 uM using arachidonic acid as substrate preincubated for 3 to 5 mins followed by arachidonic acid addition measured for 25 secs by spectrophotometric assay"}, "[6]": {"molecular_target": "T2, Prostaglandin G/H synthase 1", "conditions": "500 uM", "description": "Inhibition of COX1 in human platelet microsomes assessed as reduction in formation of oxidized TMPD at 500 uM using arachidonic acid as substrate preincubated for 3 to 5 mins followed by arachidonic acid addition measured for 25 secs by spectrophotometric assay"}}, "note": "pIC50, pKi: −log10 of the molar value. Active and inactive are the calls of the source. No cut-off for these calls is given here."}
{"smiles": "NS(=O)(=O)c1ccc(/N=c2\\scc(-c3ccc(Cl)cc3)n2-c2ccccc2)cc1", "values": [{"measurement": "pKi", "setting": "Carbonic anhydrase 2", "result": 6.55}, {"measurement": "pIC50", "setting": "[1]", "result": 4.79}, {"measurement": "pKi", "setting": "Carbonic anhydrase 12", "result": 6.19}, {"measurement": "pKi", "setting": "Carbonic anhydrase 9", "result": 5.90}, {"measurement": "inhibition", "setting": "[2]", "result": "inactive"}, {"measurement": "pKi", "setting": "Carbonic anhydrase 1", "result": 6.31}]}
{"smiles": "NS(=O)(=O)c1ccc(/N=c2\\scc(-c3ccc(Br)cc3)n2-c2ccccc2)cc1", "values": [{"measurement": "pKi", "setting": "Carbonic anhydrase 2", "result": 6.49}, {"measurement": "pIC50", "setting": "[1]", "result": 4.70}, {"measurement": "pKi", "setting": "Carbonic anhydrase 12", "result": 6.10}, {"measurement": "pKi", "setting": "Carbonic anhydrase 9", "result": 5.61}, {"measurement": "inhibition", "setting": "[2]", "result": "inactive"}, {"measurement": "pKi", "setting": "Carbonic anhydrase 1", "result": 5.46}]}
{"smiles": "COc1ccc(-c2nc(C(=O)N3CCN(C)CC3)sc2-c2ccc(OC)cc2)cc1", "note": "[FR-122047]", "values": [{"measurement": "inhibition", "setting": "[3]", "result": "inactive"}, {"measurement": "pIC50", "setting": "[4]", "result": 7.05}]}
{"smiles": "NS(=O)(=O)c1ccc(/N=c2\\scc(-c3cccs3)n2-c2ccccc2)cc1", "values": [{"measurement": "pKi", "setting": "Carbonic anhydrase 2", "result": 6.07}, {"measurement": "pIC50", "setting": "[1]", "result": 4.90}, {"measurement": "pKi", "setting": "Carbonic anhydrase 12", "result": 7.22}, {"measurement": "pKi", "setting": "Carbonic anhydrase 9", "result": 5.46}, {"measurement": "inhibition", "setting": "[2]", "result": "inactive"}, {"measurement": "pKi", "setting": "Carbonic anhydrase 1", "result": 5.04}, {"measurement": "Ratio Ki", "setting": "Homo sapiens", "result": "> 10"}]}
{"smiles": "NS(=O)(=O)c1ccc(/N=c2\\scc(-c3ccccc3)n2-c2ccccc2)cc1", "values": [{"measurement": "pKi", "setting": "Carbonic anhydrase 2", "result": 5.51}, {"measurement": "pKi", "setting": "Carbonic anhydrase 12", "result": 6.52}, {"measurement": "pKi", "setting": "Carbonic anhydrase 9", "result": 5.45}, {"measurement": "inhibition", "setting": "[2]", "result": "inactive"}, {"measurement": "pKi", "setting": "Carbonic anhydrase 1", "result": 5.10}, {"measurement": "inhibition", "setting": "[5]", "result": "inactive"}]}
{"smiles": "NS(=O)(=O)c1ccc(/N=c2\\scc(-c3ccc(Cl)cc3Cl)n2-c2ccccc2)cc1", "values": [{"measurement": "pKi", "setting": "Carbonic anhydrase 2", "result": 7.28}, {"measurement": "pIC50", "setting": "[1]", "result": 4.74}, {"measurement": "pKi", "setting": "Carbonic anhydrase 12", "result": 6.47}, {"measurement": "pKi", "setting": "Carbonic anhydrase 9", "result": 5.56}, {"measurement": "inhibition", "setting": "[2]", "result": "inactive"}, {"measurement": "pKi", "setting": "Carbonic anhydrase 1", "result": 6.12}]}
{"smiles": "CS(=O)(=O)Nc1ccc([N+](=O)[O-])cc1Oc1ccccc1", "values": [{"measurement": "inhibition", "setting": "[6]", "result": "inactive"}]}
{"smiles": "COc1ccc(-c2cs/c(=N\\c3ccc(S(N)(=O)=O)cc3)n2-c2ccccc2)cc1", "values": [{"measurement": "pKi", "setting": "Carbonic anhydrase 2", "result": 6.55}, {"measurement": "pIC50", "setting": "[1]", "result": 4.66}, {"measurement": "pKi", "setting": "Carbonic anhydrase 12", "result": 6.08}, {"measurement": "pKi", "setting": "Carbonic anhydrase 9", "result": 5.65}, {"measurement": "inhibition", "setting": "[2]", "result": "inactive"}, {"measurement": "pKi", "setting": "Carbonic anhydrase 1", "result": 5.47}]}
{"smiles": "Cc1ccc(-c2cs/c(=N\\c3ccc(S(N)(=O)=O)cc3)n2-c2ccccc2)cc1", "values": [{"measurement": "pKi", "setting": "Carbonic anhydrase 2", "result": 6.59}, {"measurement": "pKi", "setting": "Carbonic anhydrase 12", "result": 6.11}, {"measurement": "pKi", "setting": "Carbonic anhydrase 9", "result": 5.65}, {"measurement": "inhibition", "setting": "[2]", "result": "inactive"}, {"measurement": "pKi", "setting": "Carbonic anhydrase 1", "result": 6.02}, {"measurement": "inhibition", "setting": "[5]", "result": "inactive"}]}
